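Method: 48-hour compound exposure of cells in 96-well plates, five concentrations, linear interpolation of endpoints. TGI: total growth inhibition.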
Legend:
Assay in all cases: DTP human tumour cell line panel, 48 h
[1] = tested on: HS 578T breast
[2] = tested on: EKVX NSCLC
[3] = tested on: SK-MEL-28 melanoma
[4] = tested on: COLO 205 colon
[5] = tested on: UACC-62 melanoma
[6] = tested on: HCT-15 colon
[7] = tested on: NCI/ADR-RES ovarian
[8] = tested on: DU-145 prostate
[9] = tested on: NCI-H522 lung
[10] = tested on: U251 CNS
[11] = tested on: MDA-N
[12] = tested on: OVCAR-4 ovarian
[13] = tested on: MCF7 breast
[14] = tested on: HOP-62 NSCLC
[15] = tested on: HCT-116 colon
[16] = tested on: SF-295 CNS
[17] = tested on: SF-539 CNS
[18] = tested on: UO-31 renal
[19] = tested on: BT-549 breast
[20] = tested on: MOLT-4 leukemia
[21] = tested on: SW-620 colon
[22] = tested on: SR leukemia
[23] = tested on: SK-MEL-2 melanoma
[24] = tested on: NCI-H23 lung
[25] = tested on: SN12C renal
[26] = tested on: CAKI-1 renal
[27] = tested on: HL-60(TB) leukemia
[28] = tested on: PC-3 prostate
[29] = tested on: M14 melanoma
[30] = tested on: SK-OV-3 ovarian
[31] = tested on: KM12 colon
[32] = tested on: A498 renal
[33] = tested on: RPMI-8226 leukemia
[34] = tested on: MDA-MB-231 breast
[35] = tested on: SNB-19 CNS
[36] = tested on: HT29 colon
[37] = tested on: OVCAR-8 ovarian
[38] = tested on: MALME-3M melanoma
[39] = tested on: 786-0 renal
[40] = tested on: HOP-92 NSCLC
[41] = tested on: IGROV1 ovarian
[42] = tested on: T-47D breast
[43] = tested on: OVCAR-3 ovarian
[44] = tested on: SF-268 CNS
[45] = tested on: A549 NSCLC
[46] = tested on: SK-MEL-5 melanoma
[47] = tested on: ACHN renal
[48] = tested on: OVCAR-5 ovarian
[49] = tested on: RXF 393 renal
[50] = tested on: LOX IMVI melanoma
[51] = tested on: MDA-MB-435
[52] = tested on: K-562 leukemia
[53] = tested on: NCI-H226 lung
[54] = tested on: NCI-H460 lung
[55] = tested on: CCRF-CEM leukemia
[56] = tested on: HCC-2998 colon
[57] = tested on: UACC-257 melanoma
[58] = tested on: TK-10 renal

**Q.** With `COc1ccc(CC(=O)N2CCC3(C)CC(=O)CC=C23)cc1OC` (stereo not given) as the compound, how does the TGI [1] read?
**A.** > 100 µM

**Q.** What about the TGI [2] of the same compound?
**A.** > 100 µM

**Q.** And the TGI [3]?
**A.** > 100 µM

**Q.** And the TGI [4]?
**A.** > 100 µM

**Q.** And the TGI [5]?
**A.** > 100 µM

**Q.** And the TGI [6]?
**A.** > 100 µM

**Q.** What about the TGI [7] of the same compound?
**A.** > 100 µM

**Q.** And the TGI [8]?
**A.** > 100 µM

**Q.** And the TGI [9]?
**A.** > 100 µM

**Q.** What about the TGI [10] of the same compound?
**A.** > 100 µM

**Q.** And the TGI [11]?
**A.** > 100 µM

**Q.** What about the TGI [12] of the same compound?
**A.** > 100 µM

**Q.** What about the TGI [13] of the same compound?
**A.** > 100 µM

**Q.** What about the TGI [14] of the same compound?
**A.** > 100 µM

**Q.** And the TGI [15]?
**A.** > 100 µM

**Q.** And the TGI [16]?
**A.** > 100 µM

**Q.** What about the TGI [17] of the same compound?
**A.** > 100 µM

**Q.** And the TGI [18]?
**A.** > 100 µM

**Q.** And the TGI [19]?
**A.** > 100 µM

**Q.** What about the TGI [20] of the same compound?
**A.** > 100 µM

**Q.** And the TGI [21]?
**A.** > 100 µM

**Q.** And the TGI [22]?
**A.** > 100 µM

**Q.** And the TGI [23]?
**A.** > 100 µM

**Q.** And the TGI [24]?
**A.** > 100 µM

**Q.** What about the TGI [25] of the same compound?
**A.** > 100 µM

**Q.** And the TGI [26]?
**A.** > 100 µM

**Q.** What about the TGI [27] of the same compound?
**A.** > 100 µM

**Q.** What about the TGI [28] of the same compound?
**A.** > 100 µM

**Q.** What about the TGI [29] of the same compound?
**A.** > 100 µM

**Q.** What about the TGI [30] of the same compound?
**A.** > 100 µM

**Q.** What about the TGI [31] of the same compound?
**A.** > 100 µM

**Q.** What about the TGI [32] of the same compound?
**A.** > 100 µM

**Q.** What about the TGI [33] of the same compound?
**A.** > 100 µM

**Q.** And the TGI [34]?
**A.** > 100 µM

**Q.** And the TGI [35]?
**A.** > 100 µM

**Q.** What about the TGI [36] of the same compound?
**A.** > 100 µM

**Q.** What about the TGI [37] of the same compound?
**A.** > 100 µM

**Q.** And the TGI [38]?
**A.** > 100 µM

**Q.** And the TGI [39]?
**A.** > 100 µM

**Q.** And the TGI [40]?
**A.** > 100 µM

**Q.** And the TGI [41]?
**A.** > 100 µM

**Q.** What about the TGI [42] of the same compound?
**A.** > 100 µM

**Q.** What about the TGI [43] of the same compound?
**A.** > 100 µM

**Q.** And the TGI [44]?
**A.** > 100 µM

**Q.** What about the TGI [45] of the same compound?
**A.** > 100 µM

**Q.** What about the TGI [46] of the same compound?
**A.** > 100 µM

**Q.** What about the TGI [47] of the same compound?
**A.** > 100 µM

**Q.** What about the TGI [48] of the same compound?
**A.** > 100 µM

**Q.** What about the TGI [49] of the same compound?
**A.** > 100 µM

**Q.** And the TGI [50]?
**A.** > 100 µM

**Q.** And the TGI [51]?
**A.** > 100 µM

**Q.** What about the TGI [52] of the same compound?
**A.** > 100 µM

**Q.** And the TGI [53]?
**A.** > 100 µM

**Q.** How did the TGI [1] turn out when `COc1cc2c(cc1OC)C(=O)/C(=C/c1ccc(Cl)cc1)CC2` was run?
**A.** > 10 µM

**Q.** What about the TGI [2] of the same compound?
**A.** > 10 µM

**Q.** What about the TGI [3] of the same compound?
**A.** > 10 µM

**Q.** And the TGI [54]?
**A.** > 10 µM

**Q.** What about the TGI [4] of the same compound?
**A.** > 10 µM

**Q.** What about the TGI [55] of the same compound?
**A.** > 10 µM

**Q.** What about the TGI [56] of the same compound?
**A.** > 10 µM

**Q.** What about the TGI [5] of the same compound?
**A.** > 10 µM

**Q.** What about the TGI [6] of the same compound?
**A.** > 10 µM

**Q.** And the TGI [7]?
**A.** > 10 µM

**Q.** What about the TGI [8] of the same compound?
**A.** > 10 µM

**Q.** What about the TGI [10] of the same compound?
**A.** > 10 µM

**Q.** And the TGI [11]?
**A.** > 10 µM

**Q.** And the TGI [12]?
**A.** > 10 µM

**Q.** What about the TGI [13] of the same compound?
**A.** > 10 µM

**Q.** And the TGI [14]?
**A.** > 10 µM

**Q.** What about the TGI [15] of the same compound?
**A.** > 10 µM

**Q.** What about the TGI [16] of the same compound?
**A.** > 10 µM

**Q.** What about the TGI [17] of the same compound?
**A.** > 10 µM

**Q.** What about the TGI [18] of the same compound?
**A.** > 10 µM

**Q.** And the TGI [19]?
**A.** > 10 µM

**Q.** And the TGI [20]?
**A.** > 10 µM

**Q.** And the TGI [21]?
**A.** > 10 µM

**Q.** What about the TGI [22] of the same compound?
**A.** > 10 µM

**Q.** What about the TGI [23] of the same compound?
**A.** > 10 µM

**Q.** What about the TGI [24] of the same compound?
**A.** > 10 µM

**Q.** And the TGI [25]?
**A.** > 10 µM

**Q.** And the TGI [26]?
**A.** > 10 µM

**Q.** What about the TGI [27] of the same compound?
**A.** > 10 µM

**Q.** And the TGI [28]?
**A.** > 10 µM

**Q.** And the TGI [29]?
**A.** > 10 µM

**Q.** And the TGI [30]?
**A.** > 10 µM

**Q.** What about the TGI [31] of the same compound?
**A.** > 10 µM

**Q.** What about the TGI [32] of the same compound?
**A.** > 10 µM

**Q.** What about the TGI [33] of the same compound?
**A.** > 10 µM

**Q.** What about the TGI [34] of the same compound?
**A.** > 10 µM

**Q.** What about the TGI [35] of the same compound?
**A.** > 10 µM

**Q.** And the TGI [36]?
**A.** > 10 µM

**Q.** What about the TGI [57] of the same compound?
**A.** > 10 µM

**Q.** And the TGI [37]?
**A.** > 10 µM

**Q.** What about the TGI [38] of the same compound?
**A.** > 10 µM

**Q.** And the TGI [39]?
**A.** > 10 µM

**Q.** What about the TGI [40] of the same compound?
**A.** > 10 µM

**Q.** And the TGI [41]?
**A.** > 10 µM

**Q.** And the TGI [42]?
**A.** > 10 µM

**Q.** And the TGI [43]?
**A.** > 10 µM

**Q.** What about the TGI [44] of the same compound?
**A.** > 10 µM

**Q.** And the TGI [45]?
**A.** > 10 µM

**Q.** And the TGI [46]?
**A.** > 10 µM

**Q.** What about the TGI [47] of the same compound?
**A.** > 10 µM

**Q.** And the TGI [48]?
**A.** > 10 µM

**Q.** What about the TGI [49] of the same compound?
**A.** > 10 µM

**Q.** And the TGI [58]?
**A.** > 10 µM

**Q.** What about the TGI [50] of the same compound?
**A.** > 10 µM

**Q.** What about the TGI [51] of the same compound?
**A.** > 10 µM

**Q.** What about the TGI [52] of the same compound?
**A.** > 10 µM

**Q.** What about the TGI [53] of the same compound?
**A.** > 10 µM

— PubChem BioAssay (NCI)
